Test results: paper PMC6395927, “Rufomycin Targets ClpC1 Proteolysis in Mycobacterium tuberculosis and M. abscessus” (Antimicrobial Agents and Chemotherapy, 2019)
≈ marks a conversion by molar mass, not a printed value. Where two headings read alike, the source gives them in different places. Numbered stars: 1 amine (or outer) side, 2 acyl side, 3 side chain; on linkers, the order of the positions; unused ones are H or OH. Square brackets hold non-standard residues; d marks the D form. Peptide text beside a SMILES is read from it. ξ: configuration not given here. X4 = CC(C)(C1CO1)n1cc(C[C@H](N[*:1])C(=O)[*:2])c2ccccc21; Tyr(3-NO2) = N[C@@H](Cc1ccc(O)c([N+](=O)[O-])c1)C(=O)O; Gly(E-crotyl) = C/C=C/C[C@H](N)C(=O)O; NMeL = CN[C@@H](CC(C)C)C(=O)O; ξNMeL = CNC(CC(C)C)C(=O)O

Key:
[1] = tested on: M. tuberculosis 5 global clade representatives; assay: microbe, parasite or virus in culture; assay type: cell-based; settings: Mycobacterium tuberculosis, read-out: MICs
M. chelonae (ATCC 35752) = assay: microbe, parasite or virus in culture; assay type: cell-based, Mycobacterium chelonae; settings: Mycobacteroides chelonae, ATCC35752
Vero cell (ATCC CRL-81) = assay: cells; assay type: cell-based; settings: Chlorocebus sabaeus, 72 h
M. avium (ATCC 15769) = assay: microbe, parasite or virus in culture; assay type: cell-based; settings: Mycobacterium avium, ATCC15769
[2] = tested on: M. tuberculosis strain H37Rv (ATCC 27294); assay: microbe, parasite or virus in culture; assay type: cell-based, Mycobacterium tuberculosis
M. marinum (ATCC 927) = assay: microbe, parasite or virus in culture; assay type: cell-based; settings: Mycobacterium marinum, ATCC927
[3] = tested on: M. abscessus (ATCC 19977); assay: microbe, parasite or virus in culture; assay type: cell-based, Mycobacterium abscessus; settings: Mycobacteroides abscessus
M. kansasii (ATCC 12478) = assay: microbe, parasite or virus in culture; assay type: cell-based; settings: Mycobacterium kansasii, ATCC12478
M. bovis (ATCC 35734) = assay: microbe, parasite or virus in culture; assay type: cell-based; settings: Mycobacterium tuberculosis variant bovis, ATCC35734
[4] = tested on: M. smegmatis (ATCC 700084); assay: microbe, parasite or virus in culture; assay type: cell-based; settings: Mycolicibacterium smegmatis, ATCC700084
[5] = tested on: J774A.1 macrophage (ATCC TIB-67); assay: Cytotoxicity in mammalian cells (resazurin); assay type: cell-based, murine; settings: Mus musculus, J774.A1; J774, 72 h
[6] = tested on: Staphylococcus aureus (ATCC 29213); assay: MIC against nonmycobacteria (OD570); assay type: cell-based; settings: ATCC29213, S. aureus
Excerpt: (§1) Standard compounds used were ampicillin (AMP) and gentamicin (GEN). […] Amphotericin B (AmphB) and ketoconazole (KETO) were used as standard compounds.

[7] = tested on: Candida albicans (ATCC 10231); assay: MIC against nonmycobacteria (OD570); assay type: cell-based; settings: ATCC10231, C. albicans
Excerpt: as §1

[8] = tested on: Escherichia coli (ATCC 25922); assay: MIC against nonmycobacteria (OD570); assay type: cell-based; settings: ATCC25922, E. coli
Excerpt: as §1

[9] = ATCC19977, M. abscessus, read-out: MIC
[10] = Mycobacterium tuberculosis, read-out: MIC against M. tuberculosis

| Compound | MIC [1] [µM] | MIC ([2]; Mycobacterium tuberculosis) [µM] | MIC (M. bovis (ATCC 35734)) [µM] | MIC (M. chelonae (ATCC 35752); M. chelonae, read-out: MIC) [µM] | MIC (M. avium (ATCC 15769); M. avium, read-out: MIC) [µM] | MIC (M. marinum (ATCC 927); M. marinum, read-out: MIC) [µM] | MIC [3, 9] [µM] | MIC (M. kansasii (ATCC 12478); M. kansasii, read-out: MIC) [µM] | further results |
| --- | --- | --- | --- | --- | --- | --- | --- | --- | --- |
| CO[C@H]1/C=C/O[C@@]2(C)Oc3c(C)c(O)c4c(O)c(c(/C=N/N5CCN(C)CC5)c(O)c4c3C2=O)NC(=O)/C(C)=C\C=C\[C@H](C)[C@H](O)[C@@H](C)[C@@H](O)[C@@H](C)[C@H](OC(C)=O)[C@@H]1C [RIF, rifampin] | 0.01 to 0.027 (≈ 0.00823 to 0.0222 µg/mL) | 0.04 (≈ 0.0329 µg/mL) | < 0.02 | – | – | – | – | – | MIC (M. chelonae (ATCC 35752)): > 4 µM; IC50 (Vero cell (ATCC CRL-81)): 120 µM; MIC (M. avium (ATCC 15769)): 0.16 µM (≈ 0.132 µg/mL); MIC (M. marinum (ATCC 927)): 0.05 µM (≈ 0.0411 µg/mL); MIC ([3]; ATCC19977): > 4 µM; MIC (M. kansasii (ATCC 12478)): 0.15 µM (≈ 0.123 µg/mL); MIC [4]: > 120 µM; IC50 [5]: 95 µM |
| CC(C)/N=c1\cc2n(-c3ccc(Cl)cc3)c3ccccc3nc-2cc1Nc1ccc(Cl)cc1 [CLO, clofazimine] | – | – | < 0.2 | 10 (≈ 4.73 µg/mL) | < 0.2 | 0.34 (≈ 0.161 µg/mL) | 9.23 (≈ 4.37 µg/mL) | < 0.2 | MIC ([4]; M. smegmatis, read-out: MIC): 2.39 µM (≈ 1.13 µg/mL) |
| C/C=C/C[C@@H]1NC(=O)[C@H](CC(C)C)NC(=O)C(CC(C)C)N(C)C(=O)[C@H](C)NC(=O)[C@H](Cc2ccc(O)c([N+](=O)[O-])c2)NC(=O)[C@H](CC(C)C)N(C)C(=O)[C@H](Cc2cn(C(C)(C)C3CO3)c3ccccc23)NC1=O (stereo partly drawn) [V] (cyclo(A[ξNMeL]L[Gly(E-crotyl)][X4][NMeL][Tyr(3-NO2)])) | – | – | – | – | – | – | – | – | MIC [2, 10]: 0.07 µM (≈ 0.072 µg/mL) |
| CC(=O)NC[C@H]1CN(c2ccc(N3CCOCC3)c(F)c2)C(=O)O1 [LZD, linezolid] | 0.41 to 1.6 (≈ 0.138 to 0.54 µg/mL) | 1.8 (≈ 0.607 µg/mL) | – | – | – | – | – | – | – |
| CO[C@H](c1ccccc1)[C@@H]1NC(=O)[C@H](C)NC(=O)[C@H](C[C@@H](C)CO)N(C)C(=O)[C@H]([C@H](O)c2cn(C(C)(C)[C@@H]3CO3)c3ccccc23)NC(=O)[C@H]([C@H](C)C=C(C)C)NC(=O)[C@H](CC(C)C)N(C)C(=O)[C@H](C(C)C)NC1=O (stereo in doubt) [CYMA, cyclomarin A] | 0.012 to 0.079 (≈ 0.0125 to 0.0824 µg/mL) | 0.094 (≈ 0.0981 µg/mL) | < 0.02 | > 5 | 4.85 (≈ 5.06 µg/mL) | 0.58 (≈ 0.605 µg/mL) | > 5 | 1.11 (≈ 1.16 µg/mL) | IC50 (Vero cell (ATCC CRL-81)): > 50 µM; MIC [6]: > 10 µM; MIC [7]: > 10 µM; MIC [8]: > 10 µM; MIC ([4]; M. smegmatis, read-out: MIC): 1.6 µM (≈ 1.67 µg/mL); IC50 [5]: 19 µM |
| capreomycin | – | – | – | – | – | – | – | – | MIC [2]: 0.39 µM |
| C/C=C/C[C@@H]1NC(=O)[C@H](CC(C)C)NC(=O)C(CC(C)C)N(C)C(=O)[C@H](C)NC(=O)[C@H](Cc2ccc(O)c([N+](=O)[O-])c2)NC(=O)[C@H](CC(C)C)NC(=O)[C@H](Cc2cn(C(C)(C)C3CO3)c3ccccc23)NC1=O (stereo partly drawn) [IV] (cyclo(A[ξNMeL]L[Gly(E-crotyl)][X4]L[Tyr(3-NO2)])) | – | – | – | – | – | – | – | – | MIC [2, 10]: 0.58 µM (≈ 0.588 µg/mL) |
| [H]/N=C(/N)N[C@H]1[C@H](O)[C@@H](O)[C@H](O[C@@H]2O[C@@H](C)[C@](O)(C=O)[C@H]2O[C@@H]2O[C@@H](CO)[C@H](O)[C@@H](O)[C@@H]2NC)[C@@H](N/C(N)=N\[H])[C@@H]1O [STR, streptomycin] | – | 0.15 (≈ 0.0872 µg/mL) | – | – | – | – | – | – | – |
| O=[N+]([O-])c1cn2c(n1)OC[C@@H](OCc1ccc(OC(F)(F)F)cc1)C2 [PA824, pretomanid] | 0.03 to 0.1 (≈ 0.0108 to 0.0359 µg/mL) | 0.04 (≈ 0.0144 µg/mL) | 0.1 (≈ 0.0359 µg/mL) | > 8 | > 8 | > 8 | > 8 | 4.7 (≈ 1.69 µg/mL) | – |
| CC(=O)N1CCN(c2ccc(OCC3COC(Cn4ccnc4)(c4ccc(Cl)cc4Cl)O3)cc2)CC1 (stereo not drawn) [KETO, ketoconazole] | – | – | – | – | – | – | – | – | MIC [7]: 0.98 µM (≈ 0.521 µg/mL) |
| COc1nc2ccc(Br)cc2cc1[C@@H](c1ccccc1)[C@@](O)(CCN(C)C)c1cccc2ccccc12 [BDQ, bedaquiline] | 0.017 to 0.11 (≈ 0.00944 to 0.0611 µg/mL) | 0.13 (≈ 0.0722 µg/mL) | 0.1 (≈ 0.0556 µg/mL) | 0.46 (≈ 0.256 µg/mL) | 0.049 (≈ 0.0272 µg/mL) | 0.29 (≈ 0.161 µg/mL) | 0.96 (≈ 0.533 µg/mL) | 0.029 (≈ 0.0161 µg/mL) | IC50 (Vero cell (ATCC CRL-81)): 27 µM; IC50 [5]: 20 µM |
